# Marks after values point to notes of the source that are not given here.
# Assays:
# [1] = test system: C. elegans; assay: Anti-obesity effect (fat content by Nile red staining) in C. elegans; assay type: in vivo, Caenorhabditis elegans; parameters: key to Fat content: A low fat content was indicated by +1; a high fat content was assigned with +4; conditions: for Fat content: Nile red staining; for inhibitory effect on adipogenesis: low concentration of 1 μg/ml
# Description: Using a dissecting microscope (×50 magnification), C. elegans at the 4th stage (L4, the imaginal stage) was transferred to 3 ml of a cholesterol-supplemented S-medium (containing NaCl, K2HPO4, KH2PO4, cholesterol, citrate, trace metals, CaCl2 and MgSO4), and 100 μl of E. coli OP50 (OD600=0.2) liquid-cultured overnight before 1 day of experiment was added thereto. The Pterocarpus indicus fraction sample was added to the liquid media containing C. elegans, followed by rotary culture in a dark room at 16° C. and 100 rpm. The water-insoluble sample was dissolved in DMSO and added to the culture media. The final concentration of DMSO was adjusted below 1%. […] 24 hours after the sample was added to C. elegans, 30 μl of a Nile red dye at a concentration of 10 μg/ml was added (final concentration of Nile red was adjusted to 100 ng/ml) to the media, followed by continuous rotary culture for 2 days.
# In order to arrest the locomotory movement of C. elegan, 20 μl of 0.3% NaN3 was dropped on a slide glass to which 100 μl of C. elegans cultured in the presence of Nile red for 2 days was added. Under a fluorescence microscope, adipocytes of C. elegans emitting red fluorescence in a dark room were micrographed and compared with the control group to thereby determine the amount of fat. A low fat content was indicated by +1, whereas a high fat content was assigned with +4. Adult (L4 stage) C. elegans immediately prior to egg-laying were used in this Example. Therefore, the eggs were hatched after sample treatment and most of adult C. elegans were killed at 3 day post-treatment. A fat content was examined in C. elegans which had newly hatched and grown.
# [2] = Body weight gain and total visceral fat weight in mice fed high fat diet containing sesquiterpene compound; assay type: in vivo, mouse; conditions: HFD with 0.2% compound in diet, C57BL mice, 8 weeks; for total visceral fat weight: epididymal, perirenal, mesenteric and abdominal fat
# Excerpt: Obesity-inducible diet used in the present experiment was high fat diet (HFD: 40% fat calorie, 17 g Lard+3% maize oil/100 g diet) developed by the present inventors and the composition of diet containing sesquiterpene compounds was equal to that of HFD but each 8 sesquiterpene compounds with a concentration of 0.2% was included in diet [cedryl acetate-containing diet, (−)-α-cedrene-containing diet, (+)-β-cedrene-containing diet, cedrene epoxide-containing diet, methyl cedryl ether-containing diet, methyl cedryl ketone-containing diet, cedrenol-containing diet and (+)-cedrol-containing diet]. The composition of diet is described in the following Table 5.
# 6-old-week C57BL/63 male mice were adapted to laboratory environment during one week and divided into HFD control and 8 test groups according to randommized block design. […] Diet was supplied with water at 10-11 o'clock every morning, and intake amount of diet and body weight was measured every day and once of three days, respectively. The body weight was measure at 2 hrs after removing feed bin to block sudden change of body weight according to feed intake, and feed efficiency was calculated by dividing body weight gain by amount of total intake amount of diet during total experimental period which is from initial day supplying experimental diet to sacrificed day. After experimental animals were fasted for above 12 hrs, they were anesthetized with diethylether, and their blood, liver and visceral fat tissues (epididymal fat, perirenal fat, mesenteric fat and abdominal fat) were collected. And then, they were washed with 0.1 M phosphate-buffered saline (pH 7.4), and their weights were measured. Blood taken from abdominal aorta was centrifuged at 1,000×g for 15 min to separate plasma.
# [3] = Biochemical index of blood and liver tissue in mice fed high fat diet containing sesquiterpene compound; assay type: in vivo, mouse; conditions: for Liver Triglyceride / IRI (insulin resistance index) / Plasma Glucose / Plasma Insulin / Plasma Total cholesterol / Plasma Triglyceride: HFD with compound in diet, 8 weeks; for IRI (insulin resistance index) / Plasma Glucose / Plasma Insulin / Plasma Total cholesterol / Plasma Triglyceride: fasted
# Description: The composition of diet is described in the following Table 5. […] After experimental animals were fasted for above 12 hrs, they were anesthetized with diethylether, and their blood, liver and visceral fat tissues (epididymal fat, perirenal fat, mesenteric fat and abdominal fat) were collected. And then, they were washed with 0.1 M phosphate-buffered saline (pH 7.4), and their weights were measured. […] Concentration of total Plasma cholesterol, triglyceride and glucose was measured twice according to commercially available measurement kit (Bio Clinical system), respectively. Insulin concentration was measured by ELISA using mouse insulin kit (Shibayaki, Japan). […] The homogenate was mixed with 5 ml of chloroform:methanol solution (2:1, v/v), and centrifuged at 1,000×g for 10 min to separate lower phase. […] Three ml of chloroform:methanol:0.05% CaCl2 solution (3:48:47, v/v/v) were added to the resulting lower phase, and thoroughly mixed for 1 min. The mixture was centrifuged at 1,000×g for 10 min. The final lower phase was completely dried on nitrogen gas, and the dried lipid was dissolved in 1 ml of methanol to use analysis of lipid component. Triglyceride concentration in lipid extracts from liver tissues was measured according to commercially available measurement kit (Bio Clinical system) equal to that used in analysis of plasma.
# [4] = Physical characteristics of the compounds (solubility, stability); conditions: easily dissolved in organic solvent having lower polarity than ethanol, but not water
compound,measurement,setting,value
"C[C@@H]1CC[C@H]2C(C)(C)[C@H]3C[C@@]12CC1OC13C (stereo partly drawn) [cedrene epoxide, Cedrene epoxide]",Fat content,[1]; sample concentration 1 μg/ml,+4
same,Fat content,[1]; sample concentration 10 μg/ml,+3
same,Fat content,[1]; sample concentration 100 μg/ml,+2
same,Body weight gain,[2],12.4 ± 1.36 g/8 weeks
same,total visceral fat weight,[2],65.6 ± 4.43 mg/g body weight
same,Liver Triglyceride,[3],27.8 ± 2.41 µmol/g
same,IRI (insulin resistance index),[3],0.94 ± 0.14* 10^−3 pmol insulin × mmol glucose × L^−2
same,Plasma Glucose,[3],7.34 ± 0.68 mmol/L
same,Plasma Insulin,[3],0.71 ± 0.04 ng/mL
same,Plasma Total cholesterol,[3],2.81 ± 0.18 mmol/L
same,Plasma Triglyceride,[3],1.32 ± 0.08 mmol/L
same,Solubility,[4],Fat soluble
"CC1=CCC23CC1C(C)(CO)C2CCC3C (stereo not drawn) [cedrenol, Cedrenol]",inhibitory effect on adipogenesis,[1],notably inhibitory effect on adipogenesis
same,Fat content,[1]; sample concentration 1 μg/ml,+2
same,Fat content,[1]; sample concentration 10 μg/ml,+1
same,Fat content,[1]; sample concentration 100 μg/ml,+1
same,Body weight gain,[2],9.51 ± 1.47 g/8 weeks
same,total visceral fat weight,[2],57.8 ± 4.02 mg/g body weight
same,Liver Triglyceride,[3],25.0 ± 1.81 µmol/g
same,IRI (insulin resistance index),[3],0.71 ± 0.09* 10^−3 pmol insulin × mmol glucose × L^−2
same,Plasma Glucose,[3],7.24 ± 0.56 mmol/L
same,Plasma Insulin,[3],0.58 ± 0.07 ng/mL
same,Plasma Total cholesterol,[3],2.42 ± 0.22 mmol/L
same,Plasma Triglyceride,[3],1.20 ± 0.10 mmol/L
same,Solubility,[4],Fat soluble
"CO[C@]1(C)CC[C@@]23C[C@@H]1C(C)(C)[C@@H]2CC[C@H]3C [methyl cedryl ether, Methyl cedryl ether]",inhibitory effect on adipogenesis,[1],notably inhibitory effect on adipogenesis
same,Fat content,[1]; sample concentration 1 μg/ml,+1
same,Fat content,[1]; sample concentration 10 μg/ml,+2
same,Fat content,[1]; sample concentration 100 μg/ml,+2
same,Body weight gain,[2],9.31 ± 0.91 g/8 weeks
same,total visceral fat weight,[2],50.8 ± 6.12 mg/g body weight
same,Liver Triglyceride,[3],24.4 ± 1.37 µmol/g
same,IRI (insulin resistance index),[3],0.61 ± 0.08* 10^−3 pmol insulin × mmol glucose × L^−2
same,Plasma Glucose,[3],5.61 ± 0.53 mmol/L
same,Plasma Insulin,[3],0.67 ± 0.07 ng/mL
same,Plasma Total cholesterol,[3],2.01 ± 0.24 mmol/L
same,Plasma Triglyceride,[3],1.29 ± 0.13 mmol/L
same,total cholesterol concentration reduced compared to HFD,"[3]; plasma, 8-week",46%
same,Solubility,[4],Fat soluble

# — patent publication US8481592B2, “Uses of sesquiterpene derivatives” (Kwang Dong Pharm Co., Ltd., priority 2008, dated 2013)
